Test results reported in the NIST ThermoML archive (doi:10.1021/acs.jced.5b00658).
Numbers after ± are expanded uncertainties.

How the values were obtained:
[1] = for mass density / viscosity: 101.33 kPa; for mass density: Vibrating tube method; for Normal melting temperature: Crystal, DTA; for Glass transition temperature: DSC
[2] = Molar enthalpy of transition or fusion; conditions: Crystal; DSC
[3] = 278.2 K, Liquid, Concentric cylinders viscometry
[4] = 288.15 K, Liquid, Concentric cylinders viscometry
[5] = 298.15 K, Liquid, Concentric cylinders viscometry
[6] = 308.15 K, Liquid, Concentric cylinders viscometry
[7] = 318.15 K, Liquid, Concentric cylinders viscometry
[8] = 328.15 K, Liquid, Concentric cylinders viscometry
[9] = 338.15 K, Liquid, Concentric cylinders viscometry
[10] = 278.15 K, Liquid, Concentric cylinders viscometry
[11] = 293.15 K, Liquid, Concentric cylinders viscometry
[12] = 303.15 K, Liquid, Concentric cylinders viscometry
[13] = 313.15 K, Liquid, Concentric cylinders viscometry
[14] = 323.15 K, Liquid, Concentric cylinders viscometry
[15] = 333.15 K, Liquid, Concentric cylinders viscometry

SMILES | mass density ([1]; 283.15 K, Liquid) | mass density ([1]; 288.15 K, Liquid) | mass density ([1]; 293.15 K, Liquid) | mass density ([1]; 298.15 K, Liquid) | mass density ([1]; 303.15 K, Liquid) | mass density ([1]; 308.15 K, Liquid) | mass density ([1]; 313.15 K, Liquid) | Normal melting temperature [1] | Glass transition temperature [1] | Molar enthalpy of transition or fusion [2] | viscosity [1, 4] | viscosity [1, 5] | viscosity [1, 10] | viscosity [1, 11] | viscosity [1, 12] | viscosity [1, 13] | viscosity [1, 14] | viscosity [1, 15] | also measured
CCCCCC[n+]1ccn(C)c1.O=S(=O)([N-]S(=O)(=O)C(F)(F)F)C(F)(F)F | 1386.1 ± 1 kg/m3 | 1381.5 ± 1 kg/m3 | 1377.2 ± 1 kg/m3 | 1372.7 ± 1 kg/m3 | 1368.3 ± 1 kg/m3 | 1363.6 ± 1 kg/m3 | 1358.8 ± 1 kg/m3 | -11.2 ± 3.4 °C | -85.7 ± 2.9 °C | 1.65 ± 1.53 kcal/mol |  |  |  |  |  |  |  |  | 
CCCCCCCn1cc[n+](C)c1.O=S(=O)([N-]S(=O)(=O)C(F)(F)F)C(F)(F)F | 1358.4 ± 1 kg/m3 | 1354.1 ± 1 kg/m3 | 1349.8 ± 1 kg/m3 | 1345.4 ± 1 kg/m3 | 1341 ± 1 kg/m3 | 1336.4 ± 1 kg/m3 | 1331.6 ± 1 kg/m3 | -0.9 ± 3.4 °C | -85.4 ± 2.9 °C | 0.0956 ± 0.382 kcal/mol | 132 ± 4 mPa·s | 82 ± 4 mPa·s |  |  |  |  |  |  | viscosity [1, 3]: 234 ± 6 mPa·s; viscosity [1, 6]: 54 ± 4 mPa·s; viscosity [1, 7]: 37 ± 4 mPa·s; viscosity [1, 8]: 27 ± 4 mPa·s; viscosity [1, 9]: 20 ± 4 mPa·s
CCCC[n+]1ccn(C)c1.O=S(=O)([N-]S(=O)(=O)C(F)(F)F)C(F)(F)F | 1451.2 ± 1 kg/m3 | 1446.5 ± 1 kg/m3 | 1441.9 ± 1 kg/m3 | 1436.9 ± 1 kg/m3 | 1432.1 ± 1 kg/m3 | 1427.1 ± 1 kg/m3 | 1422.6 ± 1 kg/m3 | -4.6 ± 3 °C | -88.9 ± 2.9 °C | 5.76 ± 0.311 kcal/mol |  |  |  |  |  |  |  |  | 
CCCn1cc[n+](C)c1.O=S(=O)([N-]S(=O)(=O)C(F)(F)F)C(F)(F)F | 1490.2 ± 1 kg/m3 | 1485.2 ± 1 kg/m3 | 1480.6 ± 1 kg/m3 | 1475.6 ± 1 kg/m3 | 1470.8 ± 1 kg/m3 | 1465.8 ± 1 kg/m3 | 1460.6 ± 1 kg/m3 |  |  |  | 64 ± 4 mPa·s | 43 ± 4 mPa·s |  |  |  |  |  |  | viscosity [1, 3]: 103 ± 4 mPa·s; viscosity [1, 6]: 30 ± 4 mPa·s; viscosity [1, 7]: 22 ± 4 mPa·s; viscosity [1, 8]: 17 ± 4 mPa·s; viscosity [1, 9]: 13 ± 4 mPa·s
CC(C)CCCn1cc[n+](C)c1.O=S(=O)([N-]S(=O)(=O)C(F)(F)F)C(F)(F)F | 1385.9 ± 1 kg/m3 | 1381.3 ± 1 kg/m3 | 1377 ± 1 kg/m3 | 1372.4 ± 1 kg/m3 | 1367.9 ± 1 kg/m3 | 1363.3 ± 1 kg/m3 | 1358.5 ± 1 kg/m3 | 3.2 ± 3.4 °C | -81 ± 2.9 °C | 0.0239 kcal/mol | 137 ± 4 mPa·s | 85 ± 4 mPa·s | 237 ± 6 mPa·s | 107 ± 4 mPa·s | 69 ± 4 mPa·s | 45 ± 4 mPa·s | 32 ± 4 mPa·s | 23 ± 4 mPa·s | 
CC(C)[n+]1ccn(C)c1.O=S(=O)([N-]S(=O)(=O)C(F)(F)F)C(F)(F)F | 1492.2 ± 1 kg/m3 | 1487.2 ± 1 kg/m3 | 1482.5 ± 1 kg/m3 | 1477.6 ± 1 kg/m3 | 1472.8 ± 1 kg/m3 | 1467.8 ± 1 kg/m3 | 1462.6 ± 1 kg/m3 | 9.0 ± 3.4 °C | -83 ± 2.9 °C | 5.71 ± 0.406 kcal/mol | 75 ± 4 mPa·s | 48 ± 4 mPa·s | 122 ± 4 mPa·s | 59 ± 4 mPa·s | 39 ± 4 mPa·s | 28 ± 4 mPa·s | 21 ± 4 mPa·s | 16 ± 4 mPa·s | 
CCCCCn1cc[n+](C)c1.O=S(=O)([N-]S(=O)(=O)C(F)(F)F)C(F)(F)F | 1417.5 ± 1 kg/m3 | 1412.9 ± 1 kg/m3 | 1408.4 ± 1 kg/m3 | 1403.6 ± 1 kg/m3 | 1399 ± 1 kg/m3 | 1393.9 ± 1 kg/m3 | 1389.3 ± 1 kg/m3 |  |  |  |  |  |  |  |  |  |  |  | 
CC(C)Cn1cc[n+](C)c1.O=S(=O)([N-]S(=O)(=O)C(F)(F)F)C(F)(F)F | 1450.3 ± 1 kg/m3 | 1445.6 ± 1 kg/m3 | 1441.1 ± 1 kg/m3 | 1436.3 ± 1 kg/m3 | 1431.6 ± 1 kg/m3 | 1426.6 ± 1 kg/m3 | 1421.9 ± 1 kg/m3 | -16.2 ± 3.4 °C | -81.2 ± 2.9 °C | 1.63 ± 0.382 kcal/mol |  |  |  |  |  |  |  |  | viscosity ([1]; 278.15 K, Liquid): 244 mPa·s; viscosity ([1]; 288.15 K, Liquid): 132 mPa·s; viscosity ([1]; 293.15 K, Liquid): 103 mPa·s; viscosity ([1]; 298.15 K, Liquid): 79 ± 32 mPa·s; viscosity ([1]; 303.15 K, Liquid): 61 ± 11 mPa·s; viscosity ([1]; 313.15 K, Liquid): 40 ± 8 mPa·s; viscosity ([1]; 323.15 K, Liquid): 28 ± 7 mPa·s; viscosity ([1]; 333.15 K, Liquid): 20 ± 6 mPa·s
CC(C)CCCCn1cc[n+](C)c1.O=S(=O)([N-]S(=O)(=O)C(F)(F)F)C(F)(F)F | 1357.5 ± 1 kg/m3 | 1353 ± 1 kg/m3 | 1348.7 ± 1 kg/m3 | 1344.2 ± 1 kg/m3 | 1339.8 ± 1 kg/m3 | 1335.2 ± 1 kg/m3 | 1330.6 ± 1 kg/m3 | 11.2 ± 3.4 °C | -81.3 ± 2.9 °C | 0.12 ± 0.382 kcal/mol |  |  |  |  |  |  |  |  | viscosity ([1]; 278.15 K, Metastable liquid, Concentric cylinders viscometry): 306 ± 8 mPa·s; viscosity ([1]; 288.15 K, Concentric cylinders viscometry, Liquid): 164 ± 5 mPa·s; viscosity ([1]; 293.15 K, Concentric cylinders viscometry, Liquid): 124 ± 4 mPa·s; viscosity ([1]; 298.15 K, Concentric cylinders viscometry, Liquid): 96 ± 4 mPa·s; viscosity ([1]; 303.15 K, Concentric cylinders viscometry, Liquid): 76 ± 4 mPa·s; viscosity ([1]; 313.15 K, Concentric cylinders viscometry, Liquid): 50 ± 4 mPa·s; viscosity ([1]; 323.15 K, Concentric cylinders viscometry, Liquid): 35 ± 4 mPa·s; viscosity ([1]; 333.15 K, Concentric cylinders viscometry, Liquid): 25 ± 4 mPa·s
CC(C)CCn1cc[n+](C)c1.O=S(=O)([N-]S(=O)(=O)C(F)(F)F)C(F)(F)F | 1417.5 ± 1 kg/m3 | 1412.7 ± 1 kg/m3 | 1408.1 ± 1 kg/m3 | 1403.3 ± 1 kg/m3 | 1398.5 ± 1 kg/m3 | 1393.7 ± 1 kg/m3 | 1388.7 ± 1 kg/m3 | -0.0 ± 3.4 °C | -83.7 ± 2.9 °C | 0.0239 kcal/mol | 112 ± 4 mPa·s | 69 ± 4 mPa·s | 195 ± 5 mPa·s | 86 ± 4 mPa·s | 56 ± 4 mPa·s | 38 ± 4 mPa·s | 27 ± 4 mPa·s | 20 ± 4 mPa·s | 
